In this assay the target is β5c of hu c-20S (Homo sapiens (Human), UniProt P20618+P28074). Nature of the assay: IC50 determination against β5c of human constitutive proteasome (suc-LLVY-AMC hydrolysis).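 Further: IC50 obtained by fitting initial reaction velocities to a dose-dependent inhibition model, with SDS present as proteasome activator.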 The settings on record: 0.2 nM c-20S, 25 μM suc-LLVY-AMC. The assay is classed as biochemical.

As for `Cn1cc(CNC(=O)[C@@H]2Cc3cccc(c3)Oc3cccc(c3)C[C@H](N3CCCCC3)C(=O)N[C@@H](CCc3ccccc3)C(=O)N2)cn1` [Compound 1-01, (5S,8S,11S)—N-((1-Methyl-1H-pyrazol-4-yl)methyl)-7,10-dioxo-8-phenethyl-11-(piperidin-1-yl)-2-oxa-6,9-diaza-1,3(1,3)-dibenzenacyclododecaphane-5-carboxamide], it took 0.402 µM to reach half-maximal inhibition (IC50).
Turning to `CCN(CC)[C@H]1Cc2cccc(c2)Oc2cccc(c2)C[C@@H](C(=O)NCc2cnn(C)c2)NC(=O)[C@H](CCc2ccccc2)NC1=O` [Compound 1-02], inhibition was half-maximal at 0.55 µM (IC50).
For `CN1CCC(C(=O)N[C@H]2Cc3cccc(c3)Oc3cccc(c3)C[C@@H](C(=O)NCc3cnn(C)c3)NC(=O)[C@H](CCc3ccccc3)NC2=O)CC1` [Compound 1-03, (5S,8S,11S)—N-((1-Methyl-1H-pyrazol-4-yl)methyl)-11-(1-methylpiperidine-4-carboxamido)-7,10-dioxo-8-phenethyl-2-oxa-6,9-diaza-1,3(1,3)-dibenzenacyclododecaphane-5-carboxamide], the midpoint of inhibition, the IC50, lay at 1 µM.
For the compound `COC(=O)N[C@H]1Cc2cccc(c2)Oc2cccc(c2)C[C@@H](C(=O)NCC2CC2)NC(=O)[C@H](CCc2ccccc2)NC1=O` [Compound 1-06], the IC50 (usually the concentration at which inhibition is half-maximal) was 0.542 µM.
`CCC(=O)N[C@H]1Cc2cccc(c2)Oc2cccc(c2)C[C@@H](C(=O)NCC2CC2)NC(=O)[C@H](CCc2ccccc2)NC1=O` [Compound 1-07] registered an IC50 of 1.12 µM.
Regarding `CS(=O)(=O)N[C@H]1Cc2cccc(c2)Oc2cccc(c2)C[C@@H](C(=O)NCC2CC2)NC(=O)[C@H](CCc2ccccc2)NC1=O` [Compound 1-08], the IC50 came out at 1.78 µM.
`CCCN(CCC)[C@H]1Cc2cccc(c2)Oc2cccc(c2)C[C@@H](C(=O)NCc2ccccc2)NC(=O)[C@H](CCc2ccccc2)NC1=O` [Compound 1-09]: the 50% inhibitory concentration (IC50) was 0.503 µM.
As to `CC1CCCN1[C@H]1Cc2cccc(c2)Oc2cccc(c2)C[C@@H](C(=O)NCc2ccccc2)NC(=O)[C@H](CCc2ccccc2)NC1=O` (stereo partly shown) [Compound 1-10], the IC50 was 1.3 µM.
With `O=C(CO)N[C@H]1Cc2cccc(c2)Oc2cccc(c2)C[C@@H](C(=O)NCc2ccccc2)NC(=O)[C@H](CCc2ccccc2)NC1=O` [Compound 1-11] the figure was 1.93 µM; with `O=C(N[C@H]1Cc2cccc(c2)Oc2cccc(c2)C[C@@H](C(=O)NCc2ccccc2)NC(=O)[C@H](CCc2ccccc2)NC1=O)c1ccccn1` [Compound 1-12], 3.2 µM; with `Cn1cnc(C(=O)N[C@H]2Cc3cccc(c3)Oc3cccc(c3)C[C@@H](C(=O)NCc3ccccc3)NC(=O)[C@H](CCc3ccccc3)NC2=O)c1` [Compound 1-13], 3.52 µM.
Take `CCC(=O)N[C@H]1Cc2cccc(c2)Oc2cccc(c2)C[C@@H](C(=O)NCc2ccccc2)NC(=O)[C@H](CCc2ccccc2)NC1=O` [Compound 1-14]: half-maximal inhibition (IC50) was put at 4.01 µM.
`O=C(N[C@H]1Cc2cccc(c2)Oc2cccc(c2)C[C@@H](C(=O)NCc2ccccc2)NC(=O)[C@H](CCc2ccccc2)NC1=O)c1ccccc1` [Compound 1-15] came in with an IC50 of 100 µM.
Under `O=C(NC1CCCC1)[C@@H]1Cc2cccc(c2)Oc2cccc(c2)C[C@H](N2CCCC2)C(=O)N[C@@H](CCc2ccccc2)C(=O)N1` [Compound 1-18] stands 0.572 µM; under `CCC(=O)N[C@H]1Cc2cccc(c2)Oc2cccc(c2)C[C@@H](C(=O)NC2CCCC2)NC(=O)[C@H](CCc2ccccc2)NC1=O` [Compound 1-19], 2.8 µM.
Under `O=C(CO)N[C@H]1Cc2cccc(c2)Oc2cccc(c2)C[C@@H](C(=O)NC2CCCC2)NC(=O)[C@H](CCc2ccccc2)NC1=O` [Compound 1-20] stands 3.25 µM.
Compound `CCCN(CCC)[C@H]1Cc2cccc(c2)Oc2cccc(c2)C[C@@H](C(=O)NC2CCCC2)NC(=O)[C@H](CCc2ccccc2)NC1=O` [Compound 1-21] came in with an IC50 of 3.4 µM.
In the case of `CCN(CC)[C@H]1Cc2cccc(c2)Oc2cccc(c2)C[C@@H](C(=O)NC2CCCC2)NC(=O)[C@H](CCc2ccccc2)NC1=O` [Compound 1-22], 41.6 µM corresponded to half-maximal inhibition (IC50).
Under `O=C(N[C@H]1Cc2cccc(c2)Oc2cccc(c2)C[C@@H](C(=O)NC2CCCC2)NC(=O)[C@H](CCc2ccccc2)NC1=O)c1ccccc1` [Compound 1-23] stands 6.21 µM; under `CCN[C@H]1Cc2cccc(c2)Oc2cccc(c2)C[C@@H](C(=O)NC2CCCC2)NC(=O)[C@H](CCc2ccccc2)NC1=O` [Compound 1-24, (5S,8S,11S)—N-Cyclopentyl-11-(methylamino)-7,10-dioxo-8-phenethyl-2-oxa-6,9-diaza-1,3(1,3)-dibenzenacyclododecaphane-5-carboxamide], 100 µM.
Regarding `CCN(CC)[C@H]1Cc2cccc(c2)Oc2cccc(c2)C[C@@H](C(=O)NC(C)C)NC(=O)[C@H](CCc2ccccc2)NC1=O` [Compound 1-25], the IC50 stood at 1.63 µM.
As for `CC(C)NC(=O)[C@@H]1Cc2cccc(c2)Oc2cccc(c2)C[C@H](NC(=O)c2ccccc2)C(=O)N[C@@H](CCc2ccccc2)C(=O)N1` [Compound 1-26], half-maximal inhibition (IC50) was put at 6.93 µM.
`CCNC(=O)[C@@H]1Cc2cccc(c2)Oc2cccc(c2)C[C@H](N(CC)CC)C(=O)N[C@@H](CCc2ccccc2)C(=O)N1` [Compound 1-27] came in with an IC50 of 1.14 µM.
Under `CCNC(=O)[C@@H]1Cc2cccc(c2)Oc2cccc(c2)C[C@H](N2CCCCC2)C(=O)N[C@@H](CCc2ccccc2)C(=O)N1` [Compound 1-28] stands 2.47 µM; under `CCN(CC)[C@H]1Cc2cccc(c2)Oc2cccc(c2)C[C@@H](C(=O)NCC(C)C)NC(=O)[C@H](CCc2ccccc2)NC1=O` [Compound 1-29], 2.2 µM; under `CCC(=O)N[C@H]1Cc2cccc(c2)Oc2cccc(c2)C[C@@H](C(=O)NCC(C)C)NC(=O)[C@H](CCc2ccccc2)NC1=O` [Compound 1-30], 4.21 µM.
In turn, `CC(C)CNC(=O)[C@@H]1Cc2cccc(c2)Oc2cccc(c2)C[C@H](NC(=O)c2ccccc2)C(=O)N[C@@H](CCc2ccccc2)C(=O)N1` [Compound 1-31] came in with an IC50 of 5 µM.
On to `CC(C)CNC(=O)[C@@H]1Cc2cccc(c2)Oc2cccc(c2)C[C@H](NC(=O)c2cn(C)cn2)C(=O)N[C@@H](CCc2ccccc2)C(=O)N1` [Compound 1-32], for which 8.86 µM corresponded to half-maximal inhibition (IC50).
`COCCC(=O)N[C@H]1Cc2cccc(c2)Oc2cccc(c2)C[C@@H](C(=O)NCc2cccnc2)NC(=O)[C@H](CCc2ccccc2)NC1=O` [Compound 1-33] registered a half-maximal inhibitory concentration (IC50) of 2.25 µM.
`COCCNC(=O)[C@@H]1Cc2cccc(c2)Oc2cccc(c2)C[C@H](NC(=O)c2cccnc2)C(=O)N[C@@H](CCc2ccccc2)C(=O)N1` [Compound 1-34] had an IC50 of 2.85 µM.
Under `CS(=O)(=O)N[C@H]1Cc2cccc(c2)Oc2cccc(c2)C[C@@H](C(N)=O)NC(=O)[C@H](CCc2ccccc2)NC1=O` [Compound 1-35] stands 3 µM; under `CCN(CC)C(=O)[C@@H]1Cc2cccc(c2)Oc2cccc(c2)C[C@H](NC(=O)c2ccncc2)C(=O)N[C@@H](CCc2ccccc2)C(=O)N1` [Compound 1-36], 3.04 µM; under `Cc1nn(C)cc1CNC(=O)[C@@H]1Cc2cccc(c2)Oc2cccc(c2)C[C@H](NS(C)(=O)=O)C(=O)N[C@@H](CCc2ccccc2)C(=O)N1` [Compound 1-38], 4.29 µM.
For the compound `CN(C)CCC(=O)N[C@H]1Cc2cccc(c2)Oc2cccc(c2)C[C@@H](C(=O)NCC2CCCCN2C)NC(=O)[C@H](CCc2ccccc2)NC1=O` (stereo partly shown) [Compound 1-39], 4.57 µM corresponded to half-maximal inhibition (IC50).
Under `O=C(N[C@H]1Cc2cccc(c2)Oc2cccc(c2)C[C@@H](C(=O)NCCC(F)(F)F)NC(=O)[C@H](CCc2ccccc2)NC1=O)c1ccccc1` [Compound 1-41] stands 5.7 µM; under `CCC(=O)N[C@H]1Cc2cccc(c2)Oc2cccc(c2)C[C@@H](c2nc3ccccc3o2)NC(=O)[C@H](CCc2ccccc2)NC1=O` [Compound 1-42], 5.93 µM.
Under `O=C(N[C@H]1Cc2cccc(c2)Oc2cccc(c2)C[C@@H](C(=O)N2CCCC2)NC(=O)[C@H](CCc2ccccc2)NC1=O)C1COC1` [Compound 1-44] stands 7.52 µM.
Under `COCCC(=O)N[C@H]1Cc2cccc(c2)Oc2cccc(c2)C[C@@H](C(=O)NCCC(F)(F)F)NC(=O)[C@H](CCc2ccccc2)NC1=O` [Compound 1-45] stands 7.7 µM; under `CS(=O)(=O)CCNC(=O)[C@@H]1Cc2cccc(c2)Oc2cccc(c2)C[C@H](NC(=O)CO)C(=O)N[C@@H](CCc2ccccc2)C(=O)N1` [Compound 1-46], 9.5 µM; under `COCC(=O)N[C@H]1Cc2cccc(c2)Oc2cccc(c2)C[C@@H](C(=O)NCC2CCCO2)NC(=O)[C@H](CCc2ccccc2)NC1=O` (stereo partly shown) [Compound 1-47], 9.7 µM.
The compound `CCC(=O)N[C@H]1Cc2cccc(c2)Oc2cccc(c2)C[C@@H](C(=O)NCc2ccccn2)NC(=O)[C@H](CCc2ccccc2)NC1=O` [Compound 1-48] came in with an IC50 of 10.2 µM.
Take `O=C(N[C@H]1Cc2cccc(c2)Oc2cccc(c2)C[C@@H](C(=O)NCC2CCOCC2)NC(=O)[C@H](CCc2ccccc2)NC1=O)c1cccnn1` [Compound 1-49]: the midpoint of inhibition, the IC50, lay at 11.9 µM.
Compound `O=C1CCc2cccc(c2)Oc2cccc(c2)C[C@@H](C(=O)NCc2ccccc2F)NC(=O)[C@H](CCN2CCOCC2)N1` [Compound 1-91] returned a half-maximal inhibitory concentration (IC50) of 0.47 µM.
`O=C(NCC1CC1)[C@@H]1CCCCOc2cccc(c2)C[C@H](N2CCCC2=O)C(=O)N[C@@H](CCN2CCOCC2)C(=O)N1` [Compound 3-17, (7S,10S,13S)—N-(Cyclopropylmethyl)-10-(2-morpholinoethyl)-9,12-dioxo-13-(2-oxopyrrolidin-1-yl)-2-oxa-8,11-diaza-1(1,3)-benzenacyclotetradecaphane-7-carboxamide]: the IC50 stood at 17.9 µM.
For `O=C(NCC(F)(F)F)[C@@H]1CCCCOc2cccc(c2)C[C@H](N2CCCS2(=O)=O)C(=O)N[C@@H](CCN2CCOCC2)C(=O)N1` [Compound 3-19], the IC50 came to 45 µM.
With `O=C1CCc2cccc(c2)OCCCC[C@@H](C(=O)NC2CCCC2)NC(=O)[C@H](CCN2CCOCC2)N1` [Compound 3-25, (6S,9S)—N-Cyclopentyl-9-(2-morpholinoethyl)-8,11-dioxo-2-oxa-7,10-diaza-1(1,3)-benzenacyclotridecaphane-6-carboxamide], the IC50 was found to be 24.1 µM.

The values are drawn from patent publication US20240043470A1, “MACROCYCLIC COMPOUNDS AS PROTEASOME INHIBITORS” (CORNELL UNIVERSITY, priority 2017, published 2024).
